According to PubChem BioAssay AID248 (DTP/NCI, 2004):
Values joined by “and” are separate entries in the source; they are usually repeats but may differ in a detail not shown here. Equal values may be shown once. Toxic doses and inconclusive results are not listed. Cut-off read from the data, not from the text of the source: active = T/C of 150% or more; inactive = T/C below 125%.

Test system: L1210 leukemia ip in BDF1 mice, survival T/C
Test: NCI In Vivo Anticancer Drug Screen. Data for tumor model L1210 Leukemia (intraperitoneal) in B6D2F1 (BDF1) mice
Details: endpoint: mean survival time, higher = longer survival
Outline: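 Read-out is survival time, reported as the treated-group measurement over the vehicle-control measurement.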

[1] = dose: 100.0 mg/kg/injection, schedule: Q04DX003 (ip), vehicle: saline with Tween-80
[2] = dose: 100.0 mg/kg/injection, schedule: Q01DX009 (ip), vehicle: saline with Tween-80
[3] = dose: 200.0 mg/kg/injection, schedule: Q01DX009 (ip), vehicle: saline with Tween-80
[4] = dose: 400.0 mg/kg/injection, schedule: Q01DX009 (ip), vehicle: saline with Tween-80
[5] = dose: 100.0 mg/kg/injection, schedule: Q01DX009 (ip), vehicle: Klucel (hydroxypropylcellulose) (HPC)
[6] = dose: 200.0 mg/kg/injection, schedule: Q01DX009 (ip), vehicle: Klucel (hydroxypropylcellulose) (HPC)
[7] = dose: 400.0 mg/kg/injection, schedule: Q01DX009 (ip), vehicle: Klucel (hydroxypropylcellulose) (HPC)
[8] = dose: 100.0 mg/kg/injection, schedule: Q04DX002 (ip), vehicle: Klucel (hydroxypropylcellulose) (HPC)
[9] = dose: 200.0 mg/kg/injection, schedule: Q04DX002 (ip), vehicle: Klucel (hydroxypropylcellulose) (HPC)
[10] = dose: 400.0 mg/kg/injection, schedule: Q04DX002 (ip), vehicle: Klucel (hydroxypropylcellulose) (HPC)
[11] = dose: 75.0 mg/kg/injection, schedule: Q01DX001 (ip), vehicle: saline
[12] = dose: 150.0 mg/kg/injection, schedule: Q01DX001 (ip), vehicle: saline
[13] = dose: 300.0 mg/kg/injection, schedule: Q01DX001 (ip), vehicle: saline
[14] = dose: 200.0 mg/kg/injection, schedule: Q04DX003 (ip), vehicle: saline with Tween-80
[15] = dose: 400.0 mg/kg/injection, schedule: Q04DX003 (ip), vehicle: saline with Tween-80
[16] = dose: 100.0 mg/kg/injection, schedule: Q04DX003 (ip), vehicle: Klucel (hydroxypropylcellulose) (HPC)
[17] = dose: 200.0 mg/kg/injection, schedule: Q04DX003 (ip), vehicle: Klucel (hydroxypropylcellulose) (HPC)
[18] = dose: 400.0 mg/kg/injection, schedule: Q04DX003 (ip), vehicle: Klucel (hydroxypropylcellulose) (HPC)

Measured: T/C

CCSC(SCC)C(OC(C)=O)C(OC(C)=O)C(OC(C)=O)C(CNC(C)=O)OC(C)=O (configuration not stated)
inactive: dose: 25.0 mg/kg/injection, schedule: Q04DX003 (ip), vehicle: saline with Tween-80 97 % of control | dose: 50.0 mg/kg/injection, schedule: Q04DX003 (ip), vehicle: saline with Tween-80 94 % of control | [1] 93 % of control and 89 % of control

c1ccc2sccc2c1
inactive: [2] 110 % of control | [3] 111 % of control | [4] 116 % of control

O=c1[nH]c2cc([N+](=O)[O-])ccc2c2ccc(Cl)cc12
inactive: dose: 100.0 mg/kg/injection, schedule: Q01DX001 (ip), vehicle: carboxymethylcellulose (CMC) 102 % of control | dose: 200.0 mg/kg/injection, schedule: Q01DX001 (ip), vehicle: carboxymethylcellulose (CMC) 91 % of control | dose: 400.0 mg/kg/injection, schedule: Q01DX001 (ip), vehicle: carboxymethylcellulose (CMC) 95 % of control

COc1ccc(/C=N/NC(=S)Nc2ccccc2)cc1OC
inactive: [5] 94 % of control and 100 % of control | [6] 89 % of control | [7] 96 % of control and 86 % of control

C(CSC1=NCCN1)CSC1=NCCN1
inactive: dose: 6.25 mg/kg/injection, schedule: Q01DX009 (ip), vehicle: saline 105 % of control | dose: 12.5 mg/kg/injection, schedule: Q01DX009 (ip), vehicle: saline 111 % of control | dose: 25.0 mg/kg/injection, schedule: Q01DX009 (ip), vehicle: saline 107 % of control | dose: 50.0 mg/kg/injection, schedule: Q01DX009 (ip), vehicle: saline 117 % of control | dose: 100.0 mg/kg/injection, schedule: Q01DX009 (ip), vehicle: saline 115 % of control | dose: 100.0 mg/kg/injection, schedule: Q04DX003 (ip), vehicle: saline 100 % of control | dose: 200.0 mg/kg/injection, schedule: Q01DX009 (ip), vehicle: saline 115 % of control | dose: 200.0 mg/kg/injection, schedule: Q04DX003 (ip), vehicle: saline 108 % of control

CC(=O)OCCc1cccc(C)c1
inactive: [8] 104 % of control | [9] 115 % of control | [10] 108 % of control

CN(C)C/C=C/COC(=O)C(C)(C)C
inactive: [11] 93 % of control | [12] 97 % of control | [13] 87 % of control

Cc1[nH]nc2c(=O)[nH]c3ccccc3c12
inactive: dose: 18.75 mg/kg/injection, schedule: Q01DX001 (ip), vehicle: Klucel (hydroxypropylcellulose) (HPC) 89 % of control | dose: 37.5 mg/kg/injection, schedule: Q01DX001 (ip), vehicle: Klucel (hydroxypropylcellulose) (HPC) 86 % of control

O=C(c1cccc(C(=O)n2c3c(c4ccccc42)CCCC3)c1)n1c2c(c3ccccc31)CCCC2
inactive: [2] 90 % of control | [1] 95 % of control | [3] 90 % of control | [14] 98 % of control | [4] 94 % of control | [15] 88 % of control

O=C1O/C(=C(\C(=O)O)c2ccccc2)C(O)=C1c1ccccc1
inactive: [5] 113 % of control | [16] 103 % of control | [6] 101 % of control | [17] 97 % of control | [7] 102 % of control | [18] 108 % of control

CCCCC(F)C(Br)C(=O)O (configuration not stated)
inactive: dose: 100.0 mg/kg/injection, schedule: Q04DX002 (ip), vehicle: saline with Tween-80 97 % of control | dose: 200.0 mg/kg/injection, schedule: Q04DX002 (ip), vehicle: saline with Tween-80 87 % of control | dose: 400.0 mg/kg/injection, schedule: Q04DX002 (ip), vehicle: saline with Tween-80 93 % of control

Cc1ccc(OCC(=O)O)c(Cl)c1
inactive: [5] 104 % of control | [6] 94 % of control

Nc1nc(N)c(N=O)c(Nc2ccc(Cl)c(Cl)c2)n1
inactive: dose: 3.12 mg/kg/injection, schedule: Q01DX Z (ip), vehicle: carboxymethylcellulose (CMC) 117 % of control | dose: 6.25 mg/kg/injection, schedule: Q01DX Z (ip), vehicle: carboxymethylcellulose (CMC) 104 % of control | dose: 12.5 mg/kg/injection, schedule: Q01DX Z (ip), vehicle: carboxymethylcellulose (CMC) 106 % of control | dose: 25.0 mg/kg/injection, schedule: Q01DX Z (ip), vehicle: carboxymethylcellulose (CMC) 109 % of control | dose: 100.0 mg/kg/injection, schedule: Q01DX Z (ip), vehicle: carboxymethylcellulose (CMC) 89 % of control | dose: 400.0 mg/kg/injection, schedule: Q01DX Z (ip), vehicle: carboxymethylcellulose (CMC) 86 % of control

NC(=O)c1cccn1-c1cccc2c(-n3cccc3C(N)=O)cccc12
inactive: dose: 50.0 mg/kg/injection, schedule: Q04DX002 (ip), vehicle: saline with Tween-80 89 % of control

O=C1N(O)C2(CCCC(O)C2O)C(=O)C12CCCCC2 (configuration not stated)
inactive: [11] 103 % of control | [12] 96 % of control | [13] 96 % of control

CCC[CH2][Sn]([CH2]CCC)([n]1cncn1)[n]1cncn1
inactive: dose: 3.13 mg/kg/injection, schedule: Q04DX003 (ip), vehicle: saline with Tween-80 101 % of control | dose: 6.25 mg/kg/injection, schedule: Q04DX002 (ip), vehicle: saline with Tween-80 104 % of control | dose: 6.25 mg/kg/injection, schedule: Q04DX003 (ip), vehicle: saline with Tween-80 101 % of control | dose: 12.5 mg/kg/injection, schedule: Q04DX002 (ip), vehicle: saline with Tween-80 104 % of control | dose: 12.5 mg/kg/injection, schedule: Q04DX003 (ip), vehicle: saline with Tween-80 95 % of control | dose: 25.0 mg/kg/injection, schedule: Q04DX002 (ip), vehicle: saline with Tween-80 93 % of control

c1ccc(CN2CCN(CC3CC3)CC2)cc1
inactive: dose: 12.5 mg/kg/injection, schedule: Q04DX003 (ip), vehicle: Klucel (hydroxypropylcellulose) (HPC) 103 % of control | dose: 25.0 mg/kg/injection, schedule: Q04DX003 (ip), vehicle: Klucel (hydroxypropylcellulose) (HPC) 98 % of control | dose: 50.0 mg/kg/injection, schedule: Q04DX003 (ip), vehicle: Klucel (hydroxypropylcellulose) (HPC) 110 % of control

O=C(Nc1ccc(Cl)cc1)Nc1cccc2ccccc12
inactive: [5] 91 % of control | [16] 94 % of control | [6] 89 % of control | [17] 94 % of control | [7] 97 % of control | [18] 93 % of control

O=S(=O)(c1ccccc1)C1CN=NC1c1ccccc1 (configuration not stated)
inactive: dose: 50.0 mg/kg/injection, schedule: Q01DX009 (ip), vehicle: acetone 95 % of control | dose: 100.0 mg/kg/injection, schedule: Q01DX001 (ip), vehicle: saline 100 % of control | dose: 100.0 mg/kg/injection, schedule: Q01DX009 (ip), vehicle: acetone 93 % of control | dose: 200.0 mg/kg/injection, schedule: Q01DX001 (ip), vehicle: saline 94 % of control | dose: 200.0 mg/kg/injection, schedule: Q01DX009 (ip), vehicle: acetone 92 % of control | dose: 400.0 mg/kg/injection, schedule: Q01DX001 (ip), vehicle: saline 96 % of control

O=C(O)C1C2C=CC(C2)C1c1ccccc1 (configuration not stated)
inactive: [2] 101 % of control | [1] 97 % of control | [3] 97 % of control | [14] 93 % of control | [4] 98 % of control | [15] 114 % of control

CC(C)OC(=O)Nc1cccc(Br)c1
inactive: [8] 92 % of control | [9] 106 % of control | [10] 95 % of control

O=C(O)CNC(=O)C(Br)Cc1ccccc1 (configuration not stated)
inactive: [2] 96 % of control | [3] 89 % of control | [4] 89 % of control

CCCCSC1=NCCCS1
inactive: dose: 75.0 mg/kg/injection, schedule: Q01DX001 (ip), vehicle: other 104 % of control | dose: 150.0 mg/kg/injection, schedule: Q01DX001 (ip), vehicle: other 111 % of control | dose: 300.0 mg/kg/injection, schedule: Q01DX001 (ip), vehicle: other 102 % of control

CCC(Cl)COP(=O)(OCC(Cl)CC)OC(C(C)C)P(=O)(OCC(Cl)CC)OCC(Cl)CC (configuration not stated)
inactive: [16] 95 % of control | [17] 93 % of control | [18] 90 % of control

CC(=O)OC1CCC2(C)C(=CCC3C2CCC2(C)C3CC(Br)C2C(C)=O)C1 (configuration not stated)
inactive: [16] 107 % of control | [17] 88 % of control | [18] 103 % of control
